Three molecules from PMC10588032 (Journal of the American Chemical Society, 2023) can be followed below.

*1 amine or outer side, *2 acyl side, *3 side chain or, on linkers, in order; H or OH if unused. Where a SMILES comes first, the peptide text is derived from it. [ ]: non-standard residue; d: D form. X1 = CC(C)C[C@@H](CCC(=O)[*:2])N[*:1]; β3hN = NC(=O)C[C@H](N)CC(=O)O

For one experiment, the target named is PTHR2 (Homo sapiens, UniProt P49190). As to the kind of experiment: PTHR2 activation via cAMP production. Format: cell-based.
Experiment [1] has as its target T1, PTHR1 (Homo sapiens, UniProt Q03431).
T1 sequence (Q03431 27-593): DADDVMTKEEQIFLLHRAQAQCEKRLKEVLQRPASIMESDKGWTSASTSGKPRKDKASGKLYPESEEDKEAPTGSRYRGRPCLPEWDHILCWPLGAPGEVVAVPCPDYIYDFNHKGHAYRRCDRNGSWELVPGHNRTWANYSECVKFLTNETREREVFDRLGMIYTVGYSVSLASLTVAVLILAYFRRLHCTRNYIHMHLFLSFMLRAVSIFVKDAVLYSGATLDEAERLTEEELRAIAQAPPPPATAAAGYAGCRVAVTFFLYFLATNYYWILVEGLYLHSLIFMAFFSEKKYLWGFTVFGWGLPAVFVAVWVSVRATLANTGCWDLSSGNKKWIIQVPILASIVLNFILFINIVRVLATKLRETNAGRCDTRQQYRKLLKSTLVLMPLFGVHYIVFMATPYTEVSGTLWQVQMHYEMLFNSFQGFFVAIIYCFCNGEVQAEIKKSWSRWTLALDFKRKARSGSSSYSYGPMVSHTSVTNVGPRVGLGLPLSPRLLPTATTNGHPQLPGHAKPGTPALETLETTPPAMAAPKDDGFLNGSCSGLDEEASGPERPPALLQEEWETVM
Description: PTHR1 activation via cAMP production. Format: cell-based. On the technique in general: Cyclic AMP is a second messenger, typically raised through Gs and lowered through Gi signalling.

In experiment [2] the target is T1, PTHR1. As to the kind of experiment: β-arrestin-1 recruitment to the PTHR1. Format: cell-based. A general note: Recruitment of arrestin is a read-out of receptor activation apart from second messengers.
The subject of experiment [3] is PTHR1. Description: PTHR1 cAMP washout assay. Format: cell-based. As to conditions: 10 nM agonist for 20 min, then PTHR1 antagonist PTH(7-34) introduced.
The target in experiment [4] is T2, NLuc-PTHR1 (Homo sapiens, UniProt Q03431).
T2 sequence (Q03431 27-593): T1 sequence (Q03431 27-593)
Description: NLuc-PTHR1 competition binding.

The target of experiment [5] is T1, PTHR1. As to the kind of experiment: β-arrestin-2 recruitment to the PTHR1. Format: cell-based.
The target in experiment [6] is NLuc-PTHR1 (UniProt Q03431). As to the kind of experiment: FRET or BRET. A general note: BRET reads energy transfer from a luciferase to a nearby fluorophore.
The target in experiment [7] is NLuc-PTHR1 (UniProt Q03431).
The target in another experiment is T3, PTHR1-RLuc8 (UniProt Q03431 27-593).
T3 sequence (looked up): T1 sequence (Q03431 27-593)
Description: FRET or BRET.

Sequence of PTHR2 (P49190 25-550, species assumed): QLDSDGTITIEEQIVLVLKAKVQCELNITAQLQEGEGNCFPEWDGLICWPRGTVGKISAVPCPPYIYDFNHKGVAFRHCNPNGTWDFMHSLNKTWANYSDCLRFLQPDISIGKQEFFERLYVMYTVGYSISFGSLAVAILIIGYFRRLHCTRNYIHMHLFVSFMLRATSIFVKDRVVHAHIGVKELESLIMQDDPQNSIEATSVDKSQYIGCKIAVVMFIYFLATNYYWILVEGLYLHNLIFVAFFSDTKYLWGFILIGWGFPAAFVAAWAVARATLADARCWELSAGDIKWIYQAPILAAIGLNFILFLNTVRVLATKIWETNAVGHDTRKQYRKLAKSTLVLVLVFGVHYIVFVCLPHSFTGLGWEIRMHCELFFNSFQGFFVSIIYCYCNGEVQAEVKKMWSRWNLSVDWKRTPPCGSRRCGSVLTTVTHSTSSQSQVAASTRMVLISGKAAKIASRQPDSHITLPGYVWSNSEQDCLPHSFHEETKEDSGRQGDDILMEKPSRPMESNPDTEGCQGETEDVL

Turning to `CC[C@H](C)[C@H](NC(=O)[C@H](CCC(=O)O)NC(=O)[C@H](CO)NC(=O)[C@@H](NC(=O)[C@@H](N)CO)C(C)C)C(=O)N[C@@H](CCC(N)=O)C(=O)N[C@@H](CC(C)C)C(=O)N[C@@H](CCSC)C(=O)N[C@@H](Cc1c[nH]cn1)C(=O)N[C@@H](CC(N)=O)CC(=O)N[C@H](CCC(=O)N[C@@H](CCCCN)C(=O)N[C@@H](Cc1c[nH]cn1)C(=O)N[C@@H](CC(C)C)C(=O)N[C@@H](CC(N)=O)C(=O)N[C@@H](CO)C(=O)N[C@@H](CCSC)C(=O)N[C@@H](CCC(=O)O)C(=O)N[C@@H](CCCNC(=N)N)C(=O)N[C@H](C(=O)N[C@@H](CCC(=O)O)C(=O)N[C@@H](Cc1c[nH]c2ccccc12)C(=O)N[C@@H](CC(C)C)C(=O)N[C@@H](CCCNC(=N)N)C(=O)N[C@@H](CCCCN)C(=O)N[C@@H](CCCCN)C(=O)N[C@@H](CC(C)C)C(=O)N[C@@H](CCC(N)=O)C(=O)N[C@@H](CC(=O)O)C(=O)N[C@H](C(=O)N[C@@H](Cc1c[nH]cn1)C(=O)N[C@@H](CC(N)=O)C(=O)N[C@@H](Cc1ccccc1)C(N)=O)C(C)C)C(C)C)CC(C)C` [Peptide 1] (H-SVSEIQLMH[β3hN][X1]KHLNSMERVEWLRKKLQDVHNF-NH2; N-terminus assumed), the 50% effective concentration (EC50) (usually the concentration that produces a half-maximal response) at PTHR2 was 31.6 nM; at PTHR1 [1] it was 2.51 nM; on PTHR1 [2], 100 nM; on PTHR1 [5], 100 nM. The “PTHR2 cAMP Production % Max” value at PTHR2 (maximal response normalized against PTH(1-34), ≥4 independent experiments, ± SEM) is on record as 76 ± 3%. Besides, at PTHR1 [1] (maximal response normalized against PTH(1-34), 4 independent experiments, ± SEM), the “PTHR1 cAMP Production % Max” value is 116 ± 6%. On PTHR1 [2] (normalized against PTH(1-34), ≥4 independent experiments, ± SEM), the “PTHR1 β-arrestin-1 Recruitment % Max” value is 27 ± 3%. Further, the “AUC of post-washout PTHR1 cAMP, lower compared to PTH(1-34)” value in the experiment with PTHR1 [3] is recorded as ~ 40%. Further, the IC50 (in general, the concentration at which inhibition is half-maximal) at NLuc-PTHR1 [4] was 126 nM. Further, the “PTHR1 β-arrestin-2 Recruitment % Max” value at PTHR1 [5] (normalized against PTH(1-34), ≥3 independent experiments, ± SEM) turned out to be 21 ± 4%.

PTH(1-34) (peptide) registered a half-inhibitory concentration (IC50) with NLuc-PTHR1 [6] of 22 nM. Moreover, the PTHR1 cAMP production, % Max in the experiment with NLuc-PTHR1 [7] turned out to be 102%.

B1: β-arrestin-1-Venus (natural protein, UniProt P49407 1-418, looked up)
chain: MGDKGTRVFKKASPNGKLTVYLGKRDFVDHIDLVDPVDGVVLVDPEYLKERRVYVTLTCAFRYGREDLDVLGLTFRKDLFVANVQSFPPAPEDKKPLTRLQERLIKKLGEHAYPFTFEIPPNLPCSVTLQPGPEDTGKACGVDYEVKAFCAENLEEKIHKRNSVRLVIRKVQYAPERPGPQPTAETTRQFLMSDKPLHLEASLDKEIYYHGEPISVNVHVTNNTNKTVKKIKISVRQYADICLFNTAQYKCPVAMEEADDTVAPSSTFCKVYTLTPFLANNREKRGLALDGKLKHEDTNLASSTLLREGANREILGIIVSYKVKVKLVVSRGGLLGDLASSDVAVELPFTLMHPKPKEEPPHREVPENETPVDTNLIELDTNDDDIVFEDFARQRLKGMKDDKEEEEDGTGSPQLNNR
Take B1: in the experiment with PTHR1-RLuc8, the “EC50 of PTH(1-34) for recruitment” value turned out to be 7.2 nM, the “EC50 of peptide 1 for recruitment” value turned out to be 100 nM and the “EC50 of peptide 2 for recruitment” value was determined as 190 nM.
